# Measured values taken from ChEMBL document CHEMBL5375956, “Discovery of Pyrazolo[1,5-a]pyrimidine Derivative as a Novel and Selective ALKBH5 Inhibitor for the Treatment of AML” (J Med Chem, 2023).
# pIC50, pKd: −log10 of the molar value. The source made the active and inactive calls. No cut-off for these calls is given here.
# What was measured:
# MV4-11 [1] = assay: Downregulation of c-Myc level in human MV4-11 cells upto 10 uM incubated for 48 hrs by Western blot analysis; type: functional, cell-based
# HEK293 [2] = assay: Effect on TACC3 level in HEK293 cells upto 10 uM incubated for 48 hrs by Western blot analysis; type: functional, cell-based; details: Homo sapiens
# HEK293 [3] = assay: Effect on TACC3 mRNA level in HEK293 cells at 5 to 10 uM incubated for 48 hrs by qRT-PCR analysis; type: functional, cell-based; details: Homo sapiens, dose 5-10 µM
# [4] = AUC (0 to infinity) in Sprague-Dawley rat at 2 mg/kg, iv measured for 1 to 1440 mins by LC-MS/MS analysis; type: ADME, organism-based; details: in vivo
# [5] = Cmax in Sprague-Dawley rat at 2 mg/kg, iv measured for 1 to 1440 mins by LC-MS/MS analysis; type: ADME, organism-based; details: in vivo
# HEK293 [6] = assay: Effect on c-Myc level in HEK293 cells upto 10 uM incubated for 48 hrs by Western blot analysis; type: functional, cell-based; details: Homo sapiens
# RNA demethylase ALKBH5 [7] = target: RNA demethylase ALKBH5 (Homo sapiens, UniProt Q6P6C2, Y139A); assay: Binding affinity to NT-647-NHS fluorescent dye-labeled ALKBH5 Y139A mutant (unknown origin) expressed in Escherichia coli BL21(DE3) using m6A-ssDNA as substrate assessed as dissociation constant incubated for 15 mins by MST assay
# MOLM-13 [8] = assay: Induction of apoptosis in human MOLM-13 cells assessed as necrotic cells at 10 uM incubated for 48 hrs by Annexin V-FITC/PI staining based flow cytometry (reference value: 1.00 %); type: functional
# MOLM-13 [9] = assay: Downregulation of c-Myc mRNA level in human MOLM-13 cells at 5 to 10 uM incubated for 48 hrs by qRT-PCR analysis; type: functional, cell-based; details: dose 5-10 µM
# MV4-11 [10] = assay: Downregulation of TACC3 level in human MV4-11 cells upto 10 uM incubated for 48 hrs by Western blot analysis; type: functional, cell-based
# [11] = target: T1, Alpha-ketoglutarate-dependent dioxygenase FTO (Homo sapiens, UniProt Q9C0B1); assay: Binding affinity to NT-647-NHS fluorescent dye-labeled FTO (32 to 505 residues)(unknown origin) expressed in Escherichia coli BL21(DE3) using m6A-ssDNA as substrate incubated for 15 mins by MST assay
# Target sequence in this assay (Q9C0B1 whole entry, looked up, the tested form may be a part): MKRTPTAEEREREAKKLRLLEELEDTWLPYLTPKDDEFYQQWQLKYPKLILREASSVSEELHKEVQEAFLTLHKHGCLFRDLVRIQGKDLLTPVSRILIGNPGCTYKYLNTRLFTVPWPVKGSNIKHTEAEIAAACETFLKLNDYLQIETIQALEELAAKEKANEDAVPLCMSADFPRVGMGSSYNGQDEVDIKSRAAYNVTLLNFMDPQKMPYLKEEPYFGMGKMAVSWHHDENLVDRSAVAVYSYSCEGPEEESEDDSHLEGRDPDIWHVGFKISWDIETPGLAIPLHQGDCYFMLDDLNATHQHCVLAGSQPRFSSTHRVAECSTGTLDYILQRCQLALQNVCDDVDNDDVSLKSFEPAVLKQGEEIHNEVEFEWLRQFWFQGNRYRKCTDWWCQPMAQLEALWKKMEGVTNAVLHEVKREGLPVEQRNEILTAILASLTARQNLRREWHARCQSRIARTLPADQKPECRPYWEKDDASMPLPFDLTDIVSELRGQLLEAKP
# [12] = Metabolic stability in rat liver microsomes assessed as clearance measured upto 240 mins by LC-MS/MS analysis; type: ADME, Microsome; details: read-out: CLH
# HUVEC [13] = assay: Effect on TACC3 level in HUVEC cells upto 10 uM incubated for 48 hrs by Western blot analysis; type: functional, cell-based; details: Homo sapiens
# RNA demethylase ALKBH5 [14] = target: T2, RNA demethylase ALKBH5 (Homo sapiens, UniProt Q6P6C2); assay: Inhibition of ALKBH5 (66 to 292 residues)(unknown origin) expressed in Escherichia coli BL21(DE3) using 5'-TAGACATTGCCATTCTCGATAGG(m6A)-TCCGGTCAAACCTAGACGAATTCCA-3' as substrate upto 100 uM incubated for 2 hrs in presence of 2-OG by restriction endonuclease digestion assay
# Target sequence in this assay (Q6P6C2 2-394 limits assumed): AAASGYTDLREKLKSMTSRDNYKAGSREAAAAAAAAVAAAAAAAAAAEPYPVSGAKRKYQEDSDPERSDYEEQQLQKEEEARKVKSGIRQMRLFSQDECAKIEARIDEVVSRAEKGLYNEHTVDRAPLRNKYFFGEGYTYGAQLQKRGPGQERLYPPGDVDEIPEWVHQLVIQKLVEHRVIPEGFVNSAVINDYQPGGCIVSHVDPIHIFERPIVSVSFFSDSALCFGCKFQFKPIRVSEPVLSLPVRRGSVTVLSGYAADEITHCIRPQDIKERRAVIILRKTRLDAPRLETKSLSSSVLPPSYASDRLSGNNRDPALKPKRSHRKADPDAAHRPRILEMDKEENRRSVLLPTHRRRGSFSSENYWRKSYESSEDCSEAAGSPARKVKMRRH
# [15] = AUC (0 to infinity) in Sprague-Dawley rat at 10 mg/kg, po measured for 1 to 1440 mins by LC-MS/MS analysis; type: ADME, organism-based; details: in vivo
# [16] = Apparent volume of distribution during terminal phase in Sprague-Dawley rat at 2 mg/kg, iv measured for 1 to 1440 mins by LC-MS/MS analysis; type: ADME, organism-based; details: in vivo, time 1-1440 min
# RNA demethylase ALKBH5 [17] = target: T2, RNA demethylase ALKBH5; assay: Inhibition of ALKBH5 (66 to 292 residues)(unknown origin) expressed in Escherichia coli BL21(DE3) using 5'-ATTGTCA(m6A)CAGCAGA-FAM-3' as substrate incubated for 30 mins in presence of 0.2 uM of 2-OG by FP based competitive binding assay
# Target sequence in this assay (Q6P6C2 whole entry, the tested form may be a part): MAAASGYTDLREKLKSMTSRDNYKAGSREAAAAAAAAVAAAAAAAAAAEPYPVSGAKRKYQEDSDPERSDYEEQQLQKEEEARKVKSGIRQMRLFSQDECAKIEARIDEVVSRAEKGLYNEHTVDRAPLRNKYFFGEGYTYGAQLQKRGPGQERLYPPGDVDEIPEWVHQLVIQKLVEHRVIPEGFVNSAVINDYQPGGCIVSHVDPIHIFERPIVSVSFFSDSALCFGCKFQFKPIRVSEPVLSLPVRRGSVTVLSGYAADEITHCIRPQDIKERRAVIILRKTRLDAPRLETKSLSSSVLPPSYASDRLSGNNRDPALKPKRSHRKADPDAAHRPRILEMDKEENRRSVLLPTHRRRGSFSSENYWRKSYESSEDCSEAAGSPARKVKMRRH
# MOLM-13 [18] = assay: Induction of apoptosis in human MOLM-13 cells assessed as early apoptosis cells at 10 uM incubated for 48 hrs by Annexin V-FITC/PI staining based flow cytometry (reference value: 2.72 %); type: functional
# HUVEC [19] = assay: Effect on c-Myc level in HUVEC cells upto 10 uM incubated for 48 hrs by Western blot analysis; type: functional, cell-based; details: Homo sapiens
# RNA demethylase ALKBH5 [20] = target: T2, RNA demethylase ALKBH5; assay: Competitive binding affinity to ALKBH5 (66 to 292 residues)(unknown origin) expressed in Escherichia coli BL21(DE3) using 5'-ATTGTCA(m6A)CAGCAGA-FAM-3' as substrate assessed as dissociation constant incubated for 30 mins in presence of 2-OG by FP assay
# Target sequence in this assay (Q6P6C2 whole entry, the tested form may be a part): as above
# RNA demethylase ALKBH5 [21] = target: T2, RNA demethylase ALKBH5; assay: Inhibition of ALKBH5 in human MOLM-13 cells assessed as increase in m6A mRNA methylation level at 20 uM incubated for 48 hrs by LC-MS/MS analysis; type: cell-based
# Target sequence in this assay (Q6P6C2 2-394 limits assumed): as the sequence (Q6P6C2 2-394 limits assumed) above
# HUVEC [22] = assay: Effect on c-Myc mRNA level in HUVEC cells at 5 to 10 uM incubated for 48 hrs by qRT-PCR analysis; type: functional, cell-based; details: Homo sapiens, dose 5-10 µM
# MOLM-13 [23] = assay: Downregulation of TACC3 level in human MOLM-13 cells upto 10 uM incubated for 48 hrs by Western blot analysis; type: functional, cell-based
# MV4-11 [24] = assay: Downregulation of c-Myc mRNA level in human MV4-11 cells at 5 to 10 uM incubated for 48 hrs by qRT-PCR analysis; type: functional, cell-based; details: dose 5-10 µM
# MOLM-13 [25] = assay: Downregulation of TACC3 mRNA level in human MOLM-13 cells assessed as half life of expression at 20 umol/L incubated for 24 hrs by qRT-PCR analysis (reference value: 2.87 hrs); type: functional, cell-based; details: dose 20.0 µmol/L
# [26] = Toxicity in nude mouse xenografted with human MV4-11 cells assessed as lung damage at 10 to 40 mg/kg, ip treated every day for 14 days by H and E staining based analysis; type: organism-based; details: in vivo, 336 h, dose 10-40 mg/kg, time 14 day
# MV4-11 [27] = assay: Downregulation of TACC3 mRNA level in human MV4-11 cells assessed as half life of expression at 20 umol/L incubated for 24 hrs by qRT-PCR analysis (reference value: 2.63 hrs); type: functional, cell-based; details: dose 20.0 µmol/L
# [28] = target: T1, Alpha-ketoglutarate-dependent dioxygenase FTO; assay: Inhibition of FTO (32 to 505 residues)(unknown origin) expressed in Escherichia coli BL21(DE3) by FP assay
# Target sequence in this assay (Q9C0B1 whole entry, the tested form may be a part): as the sequence (Q9C0B1 whole entry, looked up, the tested form may be a part) above
# [29] = Toxicity in nude mouse xenografted with human MV4-11 cells assessed as spleen weight change at 10 to 40 mg/kg, ip treated every day for 14 days; type: organism-based; details: in vivo, 336 h, dose 10-40 mg/kg, time 14 day
# [30] = Toxicity in nude mouse xenografted with human MV4-11 cells assessed as liver damage at 10 to 40 mg/kg, ip treated every day for 14 days by H and E staining based analysis; type: organism-based; details: in vivo, 336 h, dose 10-40 mg/kg, time 14 day
# MOLM-13 [31] = assay: Downregulation of c-Myc level in human MOLM-13 cells upto 10 uM incubated for 48 hrs by Western blot analysis; type: functional, cell-based
# [32] = Metabolic stability in human plasma assessed as half life measured upto 240 mins by LC-MS/MS analysis; type: ADME, cell-free
# MV4-11 [33] = assay: Antiproliferative activity against human MV4-11 cells assessed as inhibition of cell proliferation incubated for 72 hrs by Cell Titer Luminescence assay; type: functional, cell-based; details: MV4-11, 72 h
# MOLM-13 [34] = assay: Induction of apoptosis in human MOLM-13 cells assessed as late apoptosis cells at 5 uM incubated for 48 hrs by Annexin V-FITC/PI staining based flow cytometry (reference value: 6.49 %); type: functional
# Chain of RNA demethylase ALKBH5 (Homo sapiens, UniProt Q6P6C2, Y139A) (Q6P6C2 2-394 Y139A limits assumed): as the sequence (Q6P6C2 2-394 limits assumed) above, with Y138A counted along it
smiles,measurement,setting,value
O=C(OCc1ccc(C(F)(F)F)cc1)c1ccc(-c2cc3ncc(C(=O)c4c(O)ccc([N+](=O)[O-])c4O)cn3n2)cc1,Activity,MV4-11 [1],Active
same,Activity,HEK293 [2],inactive
same,Activity,HEK293 [3],inactive
same,AUC(0-inf),[4],6740 ng·h/mL
same,Cmax,[5],13400 ng/mL
same,Activity,HEK293 [6],inactive
same,pKd,RNA demethylase ALKBH5 [7],3.54
same,Activity,MOLM-13 [8],4.14%
same,Activity,MOLM-13 [9],Active
same,Activity,MV4-11 [10],Active
same,Activity,[11],inactive
same,microsomal CLint,[12],100 µL/min/mg
same,Activity,HUVEC [13],inactive
same,inhibition,RNA demethylase ALKBH5 [14],Active
same,AUC(0-inf),[15],5820 ng·h/mL
same,Vz/F,[16],0.2636 L/kg
same,pIC50,RNA demethylase ALKBH5 [17],5.31
same,Activity,MOLM-13 [18],2.88%
same,Activity,HUVEC [19],inactive
same,pKd,RNA demethylase ALKBH5 [20],~7.18
same,inhibition,RNA demethylase ALKBH5 [21],Active
same,Activity,HUVEC [22],inactive
same,Activity,MOLM-13 [23],Active
same,Activity,MV4-11 [24],Active
same,T1/2,MOLM-13 [25],2.06 h
same,Activity,[26],Non-Toxic
same,T1/2,MV4-11 [27],1.96 h
same,pIC50,[28],< 3.70
same,Activity,[29],Non-Toxic
same,Activity,[30],Non-Toxic
same,Activity,MOLM-13 [31],Active
same,half-life,[32],10.4 h
same,pIC50,MV4-11 [33],5.92
same,Activity,MOLM-13 [34],16.5%
